The compounds below were run against PIK3CD (Human) (UniProt O00329) (assay: Assessment of PIK3CD Kinase Activity (Scintillation Proximity Assay)).
PIK3CD (Human), sequence (O00329 whole entry, looked up): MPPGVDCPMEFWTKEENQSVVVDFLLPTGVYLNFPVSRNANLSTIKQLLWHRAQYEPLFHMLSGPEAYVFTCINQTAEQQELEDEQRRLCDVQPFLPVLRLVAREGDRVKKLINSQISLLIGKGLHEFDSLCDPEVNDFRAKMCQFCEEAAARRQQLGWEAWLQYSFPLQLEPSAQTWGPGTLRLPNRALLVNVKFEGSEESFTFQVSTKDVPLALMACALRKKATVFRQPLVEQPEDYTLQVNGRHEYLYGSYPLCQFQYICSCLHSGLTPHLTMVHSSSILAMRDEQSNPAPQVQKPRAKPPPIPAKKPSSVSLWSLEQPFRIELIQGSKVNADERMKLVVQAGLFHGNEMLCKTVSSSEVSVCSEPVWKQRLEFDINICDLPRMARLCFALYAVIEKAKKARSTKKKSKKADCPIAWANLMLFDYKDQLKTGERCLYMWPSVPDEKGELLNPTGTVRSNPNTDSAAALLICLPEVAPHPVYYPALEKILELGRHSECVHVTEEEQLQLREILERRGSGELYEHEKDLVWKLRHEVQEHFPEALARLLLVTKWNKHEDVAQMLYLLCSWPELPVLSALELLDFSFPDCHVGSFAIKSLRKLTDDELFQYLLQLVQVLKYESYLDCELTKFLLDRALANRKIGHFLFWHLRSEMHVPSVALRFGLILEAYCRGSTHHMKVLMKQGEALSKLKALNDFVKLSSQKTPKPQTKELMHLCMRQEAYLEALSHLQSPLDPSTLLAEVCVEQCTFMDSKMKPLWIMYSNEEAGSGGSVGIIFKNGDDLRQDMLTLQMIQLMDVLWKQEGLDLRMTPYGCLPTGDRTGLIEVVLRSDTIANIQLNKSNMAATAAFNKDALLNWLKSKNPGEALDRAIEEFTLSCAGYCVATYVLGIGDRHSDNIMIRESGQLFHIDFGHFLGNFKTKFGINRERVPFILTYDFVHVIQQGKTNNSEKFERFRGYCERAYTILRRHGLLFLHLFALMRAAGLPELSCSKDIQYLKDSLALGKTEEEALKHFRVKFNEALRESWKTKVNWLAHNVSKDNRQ

SMILES | IC50
COc1c(C(C)n2ccc(=O)c3c(N)ncnc32)cc(Cl)c(C)c1-c1cncnc1 (stereo not drawn) | ≤ 10 nM
COc1c(C(C)n2ncc3c(N)ncnc32)cc(Cl)c(C)c1-c1ccnc(C(=O)N(C)C)c1 (stereo not drawn) | 10 to 50 nM
CCOc1c(C(C)n2nc(C)c3c(N)ncnc32)cc(Cl)c(C)c1C1CN(C[C@@H](C)O)C1 (stereo partly drawn) | ≤ 10 nM
CCOc1c(C(C)n2nc(C)c3c(N)ncnc32)cc(Cl)c(C#N)c1C1CN(C(=O)C(C)(C)C)C1 (stereo not drawn) | ≤ 10 nM
COc1c(C(C)n2nc(C)c3c(N)ncnc32)cc(Cl)c(C)c1-c1ccnc(C(=O)NCCO)c1 (stereo not drawn) | ≤ 10 nM
COc1c(C(C)n2nc(C)c3c(N)ncnc32)cc(Cl)c(C)c1C1CN([C@H](C)C(=O)N(C)C)C1 (stereo partly drawn) | ≤ 10 nM
CCOc1c(C(C)n2nc(C)c3c(N)ncnc32)cc(Cl)c(C#N)c1C1CN(S(C)(=O)=O)C1 (stereo not drawn) | ≤ 10 nM
COc1c(C(C)n2nc(C)c3c(N)ncnc32)cc(Cl)c(C)c1C1CN(CC(C)(C)O)C1 (stereo not drawn) | ≤ 10 nM
COc1c(C(C)n2nc(C)c3c(N)ncnc32)cc(Cl)c(C)c1-c1cnc(N)nc1 (stereo not drawn) | ≤ 10 nM
CCOc1c(C(C)n2nc(C)c3c(N)ncnc32)cc(Cl)c(C#N)c1C1CN(C(C)C)C1 (stereo not drawn) | ≤ 10 nM
CCOc1c(C(C)n2nc(C)c3c(N)ncnc32)cc(Cl)c(F)c1C1COC(=O)N1 (stereo not drawn) | ≤ 10 nM
CCOc1c(C(C)n2nc(C)c3c(N)ncnc32)cc(Cl)c(C#N)c1C1CN(C2CCC2)C1 (stereo not drawn) | ≤ 10 nM
CCOc1c(C(C)n2nc(C)c3c(N)ncnc32)cc(Cl)c(F)c1C1CNC(=O)C1 (stereo not drawn) | ≤ 10 nM
COc1c(C(C)n2nc(C)c3c(N)ncnc32)cc(Cl)c(C)c1C1CN(CC(F)F)C1 (stereo not drawn) | ≤ 10 nM
CCOc1c(C(C)n2cc(C)c3c(N)ncnc32)cc(Cl)c(C#N)c1C1CN(C[C@H](C)O)C1 (stereo partly drawn) | ≤ 10 nM
CCOc1c(C(C)n2nc(-c3ccc(C(=O)NC)nc3)c3c(N)ncnc32)cc(Cl)c(C)c1-c1ccc(C(=O)N(C)C)nc1 (stereo not drawn) | ≤ 10 nM
CCOc1c(C(C)n2nc(C)c3c(N)ncnc32)cc(C)c(C#N)c1C1CN(CCO)C1 (stereo not drawn) | ≤ 10 nM
CCOc1c(C(C)n2nc(C(F)F)c3c(N)ncnc32)cc(Cl)c(F)c1C1CN(CC(C)(C)O)C1 (stereo not drawn) | ≤ 10 nM
CCOc1c(C(C)n2nc(C)c3c(N)ncnc32)cc(Cl)c(C#N)c1C1CN(C(C)(C)C(=O)OC(C)(C)C)C1 (stereo not drawn) | ≤ 10 nM
COc1c(C(C)n2nc(C)c3c(N)ncnc32)cc(C)c(C#N)c1C1CN(C[C@H](C)O)C1 (stereo partly drawn) | ≤ 10 nM
CCNC(=O)c1c(C)c(Cl)cc(C(C)n2nc(C)c3c(N)ncnc32)c1-c1cc(F)cc(F)c1 (stereo not drawn) | ≤ 10 nM
COc1c(C(C)n2nc(C)c3c(N)ncnc32)cc(Cl)c(C)c1-c1ccc(N)nc1 (stereo not drawn) | ≤ 10 nM

SMILES | IC50
CCN1CC(c2c(Cl)c(Cl)cc(C(C)n3nc(C)c4c(N)ncnc43)c2OC)C1 (stereo not drawn) | ≤ 10 nM
CCOc1c(C(C)n2nc(-c3cnn(CCO)c3)c3c(N)ncnc32)cc(Cl)c(C)c1-c1ccc(C(=O)N(C)C)nc1 (stereo not drawn) | ≤ 10 nM
CCOc1c(C(C)n2nc(C)c3c(N)ncnc32)cc(Cl)c(C)c1-c1cnn(CC(=O)N(C)C)c1 (stereo not drawn) | ≤ 10 nM
CCOc1c(C(C)n2nc(C)c3c(N)ncnc32)cc(Cl)c(C#N)c1C1CN(C[C@@H](C)O)C1 (stereo partly drawn) | ≤ 10 nM
CCC(C)N1CC(c2c(C)c(Cl)cc(C(C)n3nc(C)c4c(N)ncnc43)c2OC)C1 (stereo not drawn) | ≤ 10 nM
CCOc1c(C(C)n2nc(C)c3c(N)ncnc32)cc(Cl)c(C#N)c1C1CN(CC(C)C)C1 (stereo not drawn) | ≤ 10 nM
CCOc1c(C(C)n2nc(C)c3c(N)ncnc32)cc(Cl)c(F)c1C1CN(C[C@H](C)O)C1 (stereo partly drawn) | ≤ 10 nM
COc1c(C(C)n2nc(C)c3c(N)ncnc32)cc(Cl)c(C)c1C1CN(C(C)C)C1 (stereo not drawn) | ≤ 10 nM
CNC(=O)[C@@H](C)N1CC(c2c(C)c(C#N)cc(C(C)n3nc(C(F)F)c4c(N)ncnc43)c2OC)C1 (stereo partly drawn) | ≤ 10 nM
CCOc1c(C(C)n2cc(C)c3c(N)ncnc32)cc(Cl)c(C#N)c1C1CN(C(C)C)C1 (stereo not drawn) | ≤ 10 nM
CCOc1c(C(C)n2nc(C)c3c(N)ncnc32)cc(Cl)c(C#N)c1-c1ccc(C(=O)N(C)C)nc1 (stereo not drawn) | ≤ 10 nM
COc1c(C(C)n2nc(C)c3c(N)ncnc32)cc(Cl)c(C#N)c1C1CN(CCO)C1 (stereo not drawn) | ≤ 10 nM
COc1c(C(C)n2nc(C)c3c(N)ncnc32)cc(Cl)c(C#N)c1C1CN(C(=O)C(C)C)C1 (stereo not drawn) | ≤ 10 nM
CCOc1c(C(C)n2nc(C)c3c(N)ncnc32)cc(Cl)c(C)c1C1CN(C(=O)c2cnn(C)c2)C1 (stereo not drawn) | ≤ 10 nM
CCOc1c(C(C)n2nc(C)c3c(N)ncnc32)cc(Cl)c(C)c1-c1cncc(C(=O)N(C)C)c1 (stereo not drawn) | ≤ 10 nM
CCOc1c(C(C)n2nc(C)c3c(N)ncnc32)cc(Cl)c(C#N)c1N1CC(C#N)C1 (stereo not drawn) | ≤ 10 nM
CCNC(=O)c1c(C)c(Cl)cc(C(C)n2nc(-c3ccc4[nH]ccc4c3)c3c(N)ncnc32)c1OCC (stereo not drawn) | ≤ 10 nM
COc1c(C(C)n2nc(C)c3c(N)ncnc32)cc(Cl)c(Cl)c1C1CN(C2COC2)C1 (stereo not drawn) | ≤ 10 nM
COc1c(C(C)n2nc(C)c3c(N)ncnc32)cc(Cl)c(C#N)c1C1CN(C2CCC2)C1 (stereo not drawn) | ≤ 10 nM
CCOc1c(C(C)n2nc(-c3ccncc3)c3c(N)ncnc32)cc(Cl)c(C)c1-c1ccc(C(=O)N(C)C)nc1 (stereo not drawn) | ≤ 10 nM
CCOc1c(C(C)n2nc(C)c3c(N)ncnc32)cc(Cl)c(F)c1C1CN(CC(F)(F)F)C1 (stereo not drawn) | ≤ 10 nM
COc1c(C(C)n2nc(C)c3c(N)ncnc32)cc(Cl)c(F)c1C1CN(C)C1 (stereo not drawn) | ≤ 10 nM

SMILES | IC50
COc1c(C(C)n2ccc(=O)c3c(N)ncnc32)cc(Cl)c(C)c1-c1cncc(S(C)(=O)=O)c1 (stereo not drawn) | ≤ 10 nM
CNC(=O)N1CC(c2c(C)c(Cl)cc(C(C)n3nc(C)c4c(N)ncnc43)c2OC)C1 (stereo not drawn) | ≤ 10 nM
CCOc1c(C(C)n2nc(-c3ccn(C)n3)c3c(N)ncnc32)cc(Cl)c(C)c1-c1ccc(C(=O)N(C)C)nc1 (stereo not drawn) | ≤ 10 nM
COc1c(C(C)n2nc(C)c3c(N)ncnc32)cc(Cl)c(C)c1-c1ccnc(N(C)C)c1 (stereo not drawn) | ≤ 10 nM
CCOc1c(C(C)n2nc(C)c3c(N)ncnc32)cc(Cl)c(C#N)c1C1CN(CC(F)(F)F)C1 (stereo not drawn) | ≤ 10 nM
COc1c(C(C)n2nc(C)c3c(N)ncnc32)cc(Cl)c(Cl)c1C1CN(CC(C)(C)O)C1 (stereo not drawn) | ≤ 10 nM
CCOc1c(C(C)n2nc(C)c3c(N)ncnc32)cc(Cl)c(C#N)c1C1CN(CC(C)(C)O)C1 (stereo not drawn) | ≤ 10 nM
COc1c(C(C)n2nc(C)c3c(N)ncnc32)cc(Cl)c(C)c1-c1ccnc(N2CC(O)C2)c1 (stereo not drawn) | ≤ 10 nM
COc1c(C(C)n2nc(C)c3c(N)ncnc32)cc(Cl)c(C)c1C1CN(C(=O)[C@@H](C)O)C1 (stereo partly drawn) | ≤ 10 nM
COc1c(C(C)n2nc(C)c3c(N)ncnc32)cc(Cl)c(C)c1C1CN(C(CO)C(F)(F)F)C1 (stereo not drawn) | ≤ 10 nM
COc1c(C(C)n2nc(C)c3c(N)ncnc32)cc(Cl)c(C)c1-c1cncnc1 (stereo not drawn) | ≤ 10 nM
COc1c(C(C)n2nc(C)c3c(N)ncnc32)cc(Cl)c(C)c1-c1cncc(C(=O)N(C)C)c1 (stereo not drawn) | ≤ 10 nM
COc1c(C(C)n2nc(C)c3c(N)ncnc32)cc(Cl)c(C#N)c1C1CN(C(=O)C2CC2)C1 (stereo not drawn) | ≤ 10 nM
CCOc1c(C(C)n2nc(-c3cccnc3)c3c(N)ncnc32)cc(Cl)c(C)c1-c1ccc(C(=O)N(C)C)nc1 (stereo not drawn) | ≤ 10 nM
CCOc1c(C(C)n2nc(C)c3c(N)ncnc32)cc(Cl)c(C#N)c1C1CN(CC2CC2)C1 (stereo not drawn) | ≤ 10 nM
COc1c(C(C)n2nc(C)c3c(N)ncnc32)cc(Cl)c(C)c1C1CN(CC2CC2)C1 (stereo not drawn) | ≤ 10 nM
COc1c(C(C)n2nc(C)c3c(N)ncnc32)cc(Cl)c(C)c1C1CN(C[C@H](O)C(F)(F)F)C1 (stereo partly drawn) | ≤ 10 nM
COC(=O)N1CC(c2c(C#N)c(Cl)cc(C(C)n3nc(C)c4c(N)ncnc43)c2OC)C1 (stereo not drawn) | ≤ 10 nM
COc1c(C(C)n2ccc(=O)c3c(N)ncnc32)cc(Cl)c(C)c1-c1cncc(F)c1 (stereo not drawn) | ≤ 10 nM
CCN1CC(c2c(C#N)c(Cl)cc(C(C)n3nc(C)c4c(N)ncnc43)c2OC)C1 (stereo not drawn) | ≤ 10 nM
CCOc1c(C(C)n2nc(C)c3c(N)ncnc32)cc(Cl)c(C#N)c1C1CN(CC2CCOC2)C1 (stereo not drawn) | ≤ 10 nM
CCOc1c(C(C)n2nc(C)c3c(N)ncnc32)cc(Cl)c(C#N)c1-c1ccc(C(C)(C)O)nc1 (stereo not drawn) | ≤ 10 nM

SMILES | IC50
COc1c(C(C)n2nc(C)c3c(N)ncnc32)cc(Cl)c(C#N)c1C1CN(C(C)CO)C1 (stereo not drawn) | ≤ 10 nM
COc1c(C(C)n2nc(C)c3c(N)ncnc32)cc(Cl)c(C)c1-c1cncc(C(=O)N(C)C2CC2)c1 (stereo not drawn) | ≤ 10 nM
COc1c(C(C)n2nc(C)c3c(N)ncnc32)cc(Cl)c(C#N)c1C1CN(C2COC2)C1 (stereo not drawn) | ≤ 10 nM
CCOc1c(C(C)n2nc(C)c3c(N)ncnc32)cc(Cl)c(F)c1C1CN(CC(F)F)C1 (stereo not drawn) | ≤ 10 nM
CCOc1c(C(C)n2nc(C)c3c(N)ncnc32)cc(Cl)c(C)c1-c1ccnc(C(=O)N(C)CCO)c1 (stereo not drawn) | ≤ 10 nM
COc1c(C(C)n2nc(C)c3c(N)ncnc32)cc(Cl)c(C)c1C1CN(CC#N)C1 (stereo not drawn) | ≤ 10 nM
COc1c(C(C)n2nc(C)c3c(N)ncnc32)cc(Cl)c(C)c1-c1cnn(C2CCN(C(C)=O)CC2)c1 (stereo not drawn) | ≤ 10 nM
COc1c(C(C)n2nc(C)c3c(N)ncnc32)cc(Cl)c(C)c1C1CN(C2CCOC2)C1 (stereo not drawn) | ≤ 10 nM
COc1c(C(C)n2nc(C)c3c(N)ncnc32)cc(C)c(C#N)c1C1CN(CC(C)(C)O)C1 (stereo not drawn) | ≤ 10 nM
CCOc1c(C(C)n2nc(C)c3c(N)ncnc32)cc(Cl)c(C)c1-c1ccnc(C(=O)N(C)C)c1 (stereo not drawn) | ≤ 10 nM
CCOc1c(C(C)n2nc(C)c3c(N)ncnc32)cc(Cl)c(F)c1C1CN(CC)C1 (stereo not drawn) | ≤ 10 nM
COc1c(C(C)n2nc(C)c3c(N)ncnc32)cc(Cl)c(C)c1C1CN(C(=O)C2(O)CC2)C1 (stereo not drawn) | ≤ 10 nM
COc1c(C(C)n2nc(C)c3c(N)ncnc32)cc(Cl)c(C#N)c1C1CN(C(C)=O)C1 (stereo not drawn) | ≤ 10 nM
COc1c(C(C)n2nc(C)c3c(N)ncnc32)cc(Cl)c(C#N)c1C1CN(S(=O)(=O)C(C)C)C1 (stereo not drawn) | ≤ 10 nM
CCOc1c(C(C)n2ccc(=O)c3c(N)ncnc32)cc(Cl)c(C#N)c1-c1cncc(S(C)(=O)=O)c1 (stereo not drawn) | ≤ 10 nM
CCOc1c(C(C)n2nc(C)c3c(N)ncnc32)cc(Cl)c(C#N)c1C1CNC1 (stereo not drawn) | ≤ 10 nM
CCOc1c(C(C)n2nc(C)c3c(N)ncnc32)cc(Cl)c(C)c1C1CN(C(C)C)C1 (stereo not drawn) | ≤ 10 nM
CCNC(=O)c1c(C)c(Cl)cc(C(C)n2nc(-c3cc(O)cc(F)c3)c3c(N)ncnc32)c1OCC (stereo not drawn) | ≤ 10 nM
CCOc1c(C(C)n2nc(C)c3c(N)ncnc32)cc(Cl)c(C#N)c1-c1cncc(C#N)c1 (stereo not drawn) | ≤ 10 nM
CCOc1c(C(C)n2nc(C)c3c(N)ncnc32)cc(Cl)c(C#N)c1C1CN(S(=O)(=O)C2CC2)C1 (stereo not drawn) | ≤ 10 nM
COc1c(C(C)n2nc(C(F)F)c3c(N)ncnc32)cc(Cl)c(F)c1C1CN(CCO)C1 (stereo not drawn) | ≤ 10 nM
CCOc1c(C(C)n2nc(C#N)c3c(N)ncnc32)cc(Cl)c(C)c1-c1ccc(C(=O)N(C)C)nc1 (stereo not drawn) | 10 to 50 nM

From the Kinase Knowledgebase extract (Sharma et al. 2016)
